# In patent publication US12187721B2, “Protein tyrosine phosphatase inhibitors” (Array BioPharma Inc., priority 2018, dated 2025):
# Structures can show the parent of a compound that is named as a salt. Where two headings read alike, the source gives them in different places.
# Molecular target: T1, full-length SHP2 (His6-tagged SHP2(2-527)) (Homo sapiens, UniProt Q06124)
# T1 construct: His6-tagged SHP2(2-527); His6; made in house; host or cells: E. coli
# Assay: SHP2 Enzymatic Assay (fluorescence intensity kinetic assay, DiFMUP hydrolysis)
# Type: biochemical
# Protocol: A fluorescence intensity kinetic assay was configured for full-length SHP2 that monitors the amount of 6,8-difluoro-7-hydroxy-4-methylcoumarin (“DiFMU”) formed upon hydrolysis of 6,8-difluoro-4-methylumbelliferyl phosphate (“DiFMUP”) by SHP2. Assay mixtures consisted of 25 mM K^+HEPES, pH 7.4, 0.01% Triton X-100, 1 mM DTT, 50 mM KCl, 100 μg/mL bovine γ-globulin, 50 μM DiFMUP, 1 μM SHP2 activating peptide (LN(pY)IDLDLV(dPEG8)LST(pY)ASINFQK-amide), 1 nM full-length SHP2 (His6-tagged SHP2(2-527), recombinantly expressed in E. coli and purified in-house) and 2% dimethylsulfoxide (“DMSO”) (from compound). […] The assay was run in 384-well, polystyrene, low-volume, non-treated, black microtiter plates (Costar 4511) in a final volume of 20 μL. Low control wells lacked enzyme. The assays were initiated by the addition of a mixture of SHP2 and the activating peptide, and following a 15 second mix on an orbital shaker, were read in kinetic mode for 15 minutes (30 seconds/cycle) at ambient temperature on a PerkinElmer EnVision microplate reader (λEx=355 nm, λEm=460 nm). Initial velocities (slopes of the tangents at t=0) were estimated from exponential fits to the slightly nonlinear progress curves and then were converted to percent of control (“POC”) using the following equation:
# [formula] • Where: Xmax Average Uninhibited Controls • Xmin Average Background A 4-parameter logistic model was the fit to the POC data for each compound. From that fit, the IC50 was estimated and is defined as the concentration of compound at which the curve crosses 50 POC.
# The reported IC50 in Table 1 may be from a single assay or the mean of multiple assays.
# T1 sequence (Q06124 2-527): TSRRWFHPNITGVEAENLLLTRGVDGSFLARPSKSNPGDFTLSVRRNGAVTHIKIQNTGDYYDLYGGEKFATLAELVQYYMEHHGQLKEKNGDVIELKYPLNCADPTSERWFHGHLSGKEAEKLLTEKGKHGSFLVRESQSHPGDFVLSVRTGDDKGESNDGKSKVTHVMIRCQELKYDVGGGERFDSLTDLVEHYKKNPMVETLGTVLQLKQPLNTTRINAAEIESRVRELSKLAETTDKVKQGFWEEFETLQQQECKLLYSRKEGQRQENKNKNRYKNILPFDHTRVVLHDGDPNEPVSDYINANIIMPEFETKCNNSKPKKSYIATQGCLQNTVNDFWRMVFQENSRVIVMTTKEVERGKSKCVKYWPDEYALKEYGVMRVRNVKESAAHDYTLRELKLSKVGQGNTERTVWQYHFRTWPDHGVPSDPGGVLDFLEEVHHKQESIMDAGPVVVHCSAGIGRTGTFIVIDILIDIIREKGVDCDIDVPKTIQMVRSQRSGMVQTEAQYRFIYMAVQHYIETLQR
SMILES,IC50,"IC50 (full-length SHP2 with 1 μM activating peptide, 50 μM DiFMUP, single assay or mean of multiple assays, read-out: Biological Example 1 IC50)"
"C[C@@H]1OCC2(CCN(c3cnc4nc(Sc5ccnc(N6CCC(O)C6)c5Cl)ccc4n3)CC2)[C@@H]1N (stereo partly drawn) [Example 89, 1-(4-((2-((3S,4S)-4-amino-3-methyl-2-oxa-8-azaspiro[4.5]decan-8-yl)pyrido[2,3-b]pyrazin-6-yl)thio)-3-chloropyridin-2-yl)pyrrolidin-3-ol]",79 nM,–
"COc1ccc2c(n1)CC1(CCN(c3cnc4nc(Sc5ccnc(N)c5Cl)ccc4n3)CC1)[C@H]2N (single isomer, unassigned) [Example 116]",36 nM,–
"C[C@@H]1OCC2(CCN(c3cnc4nc(Sc5ccnc(CO)c5Cl)ccc4n3)CC2)[C@@H]1N [Example 90, (4-((2-((3S,4S)-4-amino-3-methyl-2-oxa-8-azaspiro[4.5]decan-8-yl)pyrido[2,3-b]pyrazin-6-yl)thio)-3-chloropyridin-2-yl)methanol]",183 nM,–
"C[C@@H]1OCC2(CCN(c3cnc4nc(Sc5c(Cl)cnc6[nH]ccc56)ccc4n3)CC2)[C@@H]1N [Example 192, (3S,4S)-8-(6-((5-chloro-1H-pyrrolo[2,3-b]pyridin-4-yl)thio)pyrido[2,3-b]pyrazin-2-yl)-3-methyl-2-oxa-8-azaspiro[4.5]decan-4-amine]",45 nM,–
"CC1(N)CCN(c2cnc3cc(-c4cccc(Cl)c4Cl)ccc3n2)CC1 [Example 22, 1-(6-(2,3-dichlorophenyl)quinoxalin-2-yl)-4-methylpiperidin-4-amine]",–,700 nM
"C[C@]1(N)CCCN(c2cnc3nc(Sc4ccnc(N)c4Cl)ccc3n2)CC1 (single isomer, unassigned) [Example 75]",30 nM,–
"Nc1nccc(Sc2ccc3nc(N4CCC(N)(Cc5ccccn5)CC4)cnc3n2)c1Cl [Example 180, 4-((2-(4-amino-4-(pyridin-2-ylmethyl)piperidin-1-yl)pyrido[2,3-b]pyrazin-6-yl)thio)-3-chloropyridin-2-amine]",274 nM,–
"Nc1nccc(Sc2ccc3nc(N4CCC(O)(CO)CC4)cnc3n2)c1Cl [Example 198, 1-(6-((2-amino-3-chloropyridin-4-yl)thio)pyrido[2,3-b]pyrazin-2-yl)-4-(hydroxymethyl)piperidin-4-ol]",3990 nM,–
"C[C@@]1(N)CCN(c2cnc3nc(Sc4ccnc(N)c4Cl)ccc3n2)C1 [Example 24, (R)-4-((2-(3-amino-3-methylpyrrolidin-1-yl)pyrido[2,3-b]pyrazin-6-yl)thio)-3-chloropyridin-2-amine]",200 nM,–
"CC(C)(O)CC1(N)CCN(c2cnc3nc(Sc4ccnc(N)c4Cl)ccc3n2)CC1 [Example 129, 1-(4-amino-1-(6-((2-amino-3-chloropyridin-4-yl)thio)pyrido[2,3-b]pyrazin-2-yl)piperidin-4-yl)-2-methylpropan-2-ol]",34 nM,–
"C[C@@H]1OCC2(CCN(c3cnc4nc(Sc5ccnc(N6CC[C@@H](O)C6)c5Cl)ccc4n3)CC2)[C@@H]1N [Example 107, (R)-1-(4-((2-((3S,4S)-4-amino-3-methyl-2-oxa-8-azaspiro[4.5]decan-8-yl)pyrido[2,3-b]pyrazin-6-yl)thio)-3-chloropyridin-2-yl)pyrrolidin-3-ol]",120 nM,–
"Nc1nccc(Sc2ccc3nc(N4C5CCC4CNC5)cnc3n2)c1Cl [Example 204, 4-((2-(3,8-diazabicyclo[3.2.1]octan-8-yl)pyrido[2,3-b]pyrazin-6-yl)thio)-3-chloropyridin-2-amine]",47 nM,–
"C[C@@H]1OCC2(CCN(c3cnc4nc(Sc5ccnc(N6CCOCC6)c5Cl)ccc4n3)CC2)[C@@H]1N [Example 79, (3S,4S)-8-(6-((3-chloro-2-morpholinopyridin-4-yl)thio)pyrido[2,3-b]pyrazin-2-yl)-3-methyl-2-oxa-8-azaspiro[4,5]decan-4-amine]",425 nM,–
"Cc1ccc2c(n1)CC1(CCN(c3cnc4nc(Sc5ccnc(N)c5Cl)ccc4n3)CC1)[C@H]2N [Example 113, (R)-1′-(6-((2-amino-3-chloropyridin-4-yl)thio)pyrido[2,3-b]pyrazin-2-yl)-2-methyl-5,7-dihydrospiro[cyclopenta[b]pyridine-6,4′-piperidin]-5-amine]",53 nM,–
"Nc1nccc(Sc2ccc3nc(N4CC5CCCC(N)C5C4)cnc3n2)c1Cl (stereo not shown) [Example 99, 2-(6-((2-amino-3-chloropyridin-4-yl)thio)pyrido[2,3-b]pyrazin-2-yl)octahydro-1H-isoindol-4-amine]",157 nM,–
"Cc1nccc(Sc2ccc3nc(N4CCC[C@@](C)(N)CC4)cnc3n2)c1Cl (single isomer, unassigned) [Example 150]",50 nM,–

SMILES,IC50,"IC50 (full-length SHP2 with 1 μM activating peptide, 50 μM DiFMUP, single assay or mean of multiple assays, read-out: Biological Example 1 IC50)"
"C[C@@H]1OCC2(CCN(c3cnc4nc(Sc5cc(N)nc(Cl)c5Cl)ccc4n3)CC2)[C@@H]1N [Example 68, (3S,4S)-8-(6-((6-amino-2,3-dichloropyridin-4-yl)thio)pyrido[2,3-b]pyrazin-2-yl)-3-methyl-2-oxa-8-azaspiro[4,5]decan-4-amine]",69 nM,–
"CC1(N)CCN(c2cnc3nc(-c4cccc(Cl)c4)ccc3n2)CC1 [Example 3, 1-(6-(3-chlorophenyl)pyrido[2,3-b]pyrazin-2-yl)-4-methylpiperidin-4-amine]",1800 nM,–
"C[C@@H]1OCC2(CCN(c3cnc4nc(N5CCCc6ccccc65)ccc4n3)CC2)[C@@H]1N [Example 69, (3S,4S)-8-(6-(3,4-dihydroquinolin-1(2H)-yl)pyrido[2,3-b]pyrazin-2-yl)-3-methyl-2-oxa-8-azaspiro[4,5]decan-4-amine]",79 nM,–
"N[C@@H]1CCCC12CCN(c1cnc3nc(Sc4cccc(Cl)c4Cl)ccc3n1)CC2 [Example 8, (R)-8-(6-((2,3-dichlorophenyl)thio)pyrido[2,3-b]pyrazin-2-yl)-8-azaspiro[4.5]decan-1-amine]",59 nM,–
"Nc1nccc(Sc2ccc3nc(N4CCC(N)(CO)CC4)cnc3n2)c1Cl [Example 43, (4-amino-1-(6-((2-amino-3-chloropyridin-4-yl)thio)pyrido[2,3-b]pyrazin-2-yl)piperidin-4-yl)methanol]",100 nM,–
"C[C@@H]1OCC2(CCN(c3cnc4nc(-c5ccccc5)ccc4n3)CC2)[C@@H]1N [Example 66, (3S,4S)-3-methyl-8-(6-phenylpyrido[2,3-b]pyrazin-2-yl)-2-oxa-8-azaspiro[4.5]decan-4-amine]",2750 nM,–
"C[C@@H]1C[C@@H](N)CCN1c1cnc2nc(Sc3ccnc(N)c3Cl)ccc2n1 [Example 122, 4-((2-((2R,4S)-4-amino-2-methylpiperidin-1-yl)pyrido[2,3-b]pyrazin-6-yl)thio)-3-chloropyridin-2-amine dihydrochloride]",64 nM,–
"Cc1nc2nc(Sc3cccc(Cl)c3Cl)ccc2nc1N1CCC(C)(N)CC1 [Example 120, 1-(6-((2,3-dichlorophenyl)thio)-3-methylpyrido[2,3-b]pyrazin-2-yl)-4-methylpiperidin-4-amine]",633 nM,–
"C[C@@H]1OCC2(CCN(c3ccc4nc(Sc5cccc(Cl)c5Cl)cnc4n3)CC2)[C@@H]1N [Example 5, (3S,4S)-8-(2-((2,3-dichlorophenyl)thio)pyrido[2,3-b]pyrazin-6-yl)-3-methyl-2-oxa-8-azaspiro[4,5]decan-4-amine]",4000 nM,–
"Nc1nccc(Sc2ccc3nc(N4CCC5(CC4)c4ccccc4[C@H]5N)cnc3n2)c1Cl [Example 165, (S)-1′-(6-((2-amino-3-chloropyridin-4-yl)thio)pyrido[2,3-b]pyrazin-2-yl)spiro[bicyclo[4.2.0]octane-7,4′-piperidine]-1(6),2,4-trien-8-amine]",16000 nM,–
"Nc1nccc(Sc2ccc3nc(N4CC5COCC(C4)N5)cnc3n2)c1Cl [Example 207, 4-((2-(3-oxa-7,9-diazabicyclo[3.3.1]nonan-7-yl)pyrido[2,3-b]pyrazin-6-yl)thio)-3-chloropyridin-2-amine]",730 nM,–
"CC1(N)CCN(c2cnc3nc(-c4ccnc(NCCO)c4Cl)ccc3n2)CC1 [Example 47, 2-((4-(2-(4-amino-4-methylpiperidin-1-yl)pyrido[2,3-b]pyrazin-6-yl)-3-chloropyridin-2-yl)amino)ethan-1-ol]",6000 nM,–
"CC1(N)CCN(c2cnc3nc(-c4ccnc(N5CC[C@@H](O)C5)c4Cl)ccc3n2)CC1 [Example 46, (R)-1-(4-(2-(4-amino-4-methylpiperidin-1-yl)pyrido[2,3-b]pyrazin-6-yl)-3-chloropyridin-2-yl)pyrrolidin-3-ol]",2900 nM,–
"Nc1nccc(Sc2ccc3nc(N4CC5CCC(C4)N5)cnc3n2)c1Cl [Example 201, 4-((2-(3,8-diazabicyclo[3.2.1]octan-3-yl)pyrido[2,3-b]pyrazin-6-yl)thio)-3-chloropyridin-2-amine]",130 nM,–
"NCC1(CO)CCN(c2cnc3nc(Sc4ccnc(N)c4Cl)ccc3n2)CC1 [Example 86, (1-(6-((2-amino-3-chloropyridin-4-yl)thio)pyrido[2,3-b]pyrazin-2-yl)-4-(aminomethyl)piperidin-4-yl)methanol]",53 nM,–
